pIC50: −log10 of the molar value. Marks after values point to notes of the source that are not given here.
How the values were obtained:
[1] = tested on: HCC 827 (human non-small cell lung cancer cell line); assay: Growth inhibition test in tumor cells (CCK8), HCC827; assay type: cell-based; details: HCC 827 cells, 72 h
Experimental: (§1) i) Logarithmic growth phase cells were collected and counted, the cells were suspended again with complete medium, the cell concentration was adjusted to an appropriate concentration (determined according to the results of cell density optimization test), inoculated to 96 plates, each of which with 100 mL cells suspension.

[2] = tested on: MDA-MB-453 (human breast cancer cell lines); assay: Growth inhibition test in tumor cells (CCK8), MDA-MB-453; assay type: cell-based; details: MDA-MB-453 cells, 72 h
Experimental: Growth Inhibition Tests of a Series of Compounds in Different Tumor Cells
i. Cell lines: A431 (human epithelial carcinoma cell lines), A549 (human lung cancer cell lines), NCI H1975 (human non-small cell lung cancer cell lines (HCC), HCC 827 (human non-small cell lung cancer cell line), MDA-MB-453 (human breast cancer cell lines)
MDA-MB-453 cell line: 90% L15+10% FBS; trypsin (a 0.25% (W/V) solution was prepared with […], 0.53 mM EDTA was added);
i) Logarithmic growth phase cells were collected and counted, the cells were suspended again with complete medium,
ii) The cell concentration was adjusted to an appropriate concentration, inoculated to 96 holes, each of which with 100 μL cells suspension.
iii) The cells were incubated in a 37° C., 100% relative humidity and 5% CO2 incubator, for 24 h.
i) Logarithmic growth phase cells were collected and counted, the cells were suspended again with complete medium, the cell concentration was adjusted to an appropriate concentration (determined according to the results of cell density optimization test), inoculated to 96 plates, each of which with […] cells suspension. The cells were incubated in a 37° C., 100% relative humidity and 5% CO2 incubator for 24 h.
ii) The test compounds were diluted to the corresponding concentration stated by culture medium, and the cells were inoculated as 25 μL/hole. The final concentration of the compound was from 10 μM to 0 μM, with a gradient of 4 times, and 10 concentration points totally.
iii) The cells were incubated in a 37° C., 100% relative humidity, 5% CO2 incubator for 72 h.
iv) Absorbing the culture medium, the complete medium containing 10% CCK-8 was added and incubated in the incubator of 37° C. for 2-4 h.
v) After a slight shake, the absorbance at 450 nm was measured by SpectraMax M5 Microplate Reader, taking the absorbance at 650 nm as a reference, the inhibition rate was calculated.
The IC50 curve fitting was performed by using the software Graphpad Prism 5 and the calculation formula log (inhibitor) vs. response to calculate the IC50 value.

[3] = tested on: A431 (human epithelial carcinoma cell lines); assay: Growth inhibition test in tumor cells (CCK8), A431; assay type: cell-based; details: A-431, 72 h
Experimental: as §1

[4] = tested on: NCI H1975 (human non-small cell lung cancer cell lines); assay: Growth inhibition test in tumor cells (CCK8), NCI-H1975; assay type: cell-based; details: 72 h
Experimental: as §1

[5] = tested on: A549 (human lung cancer cell lines); assay: Growth inhibition test in tumor cells (CCK8), A549; assay type: cell-based; details: 72 h
Experimental: as §1

[6] = target: Her-2 enzyme (Homo sapiens (Human), UniProt P04626); assay: HTRF kinEASE TK in vitro kinase assay, Her-2; assay type: biochemical; details: 30 min enzyme reaction, read-out: IC50 against Her-2
Her-2 enzyme, sequence (P04626 23-1255): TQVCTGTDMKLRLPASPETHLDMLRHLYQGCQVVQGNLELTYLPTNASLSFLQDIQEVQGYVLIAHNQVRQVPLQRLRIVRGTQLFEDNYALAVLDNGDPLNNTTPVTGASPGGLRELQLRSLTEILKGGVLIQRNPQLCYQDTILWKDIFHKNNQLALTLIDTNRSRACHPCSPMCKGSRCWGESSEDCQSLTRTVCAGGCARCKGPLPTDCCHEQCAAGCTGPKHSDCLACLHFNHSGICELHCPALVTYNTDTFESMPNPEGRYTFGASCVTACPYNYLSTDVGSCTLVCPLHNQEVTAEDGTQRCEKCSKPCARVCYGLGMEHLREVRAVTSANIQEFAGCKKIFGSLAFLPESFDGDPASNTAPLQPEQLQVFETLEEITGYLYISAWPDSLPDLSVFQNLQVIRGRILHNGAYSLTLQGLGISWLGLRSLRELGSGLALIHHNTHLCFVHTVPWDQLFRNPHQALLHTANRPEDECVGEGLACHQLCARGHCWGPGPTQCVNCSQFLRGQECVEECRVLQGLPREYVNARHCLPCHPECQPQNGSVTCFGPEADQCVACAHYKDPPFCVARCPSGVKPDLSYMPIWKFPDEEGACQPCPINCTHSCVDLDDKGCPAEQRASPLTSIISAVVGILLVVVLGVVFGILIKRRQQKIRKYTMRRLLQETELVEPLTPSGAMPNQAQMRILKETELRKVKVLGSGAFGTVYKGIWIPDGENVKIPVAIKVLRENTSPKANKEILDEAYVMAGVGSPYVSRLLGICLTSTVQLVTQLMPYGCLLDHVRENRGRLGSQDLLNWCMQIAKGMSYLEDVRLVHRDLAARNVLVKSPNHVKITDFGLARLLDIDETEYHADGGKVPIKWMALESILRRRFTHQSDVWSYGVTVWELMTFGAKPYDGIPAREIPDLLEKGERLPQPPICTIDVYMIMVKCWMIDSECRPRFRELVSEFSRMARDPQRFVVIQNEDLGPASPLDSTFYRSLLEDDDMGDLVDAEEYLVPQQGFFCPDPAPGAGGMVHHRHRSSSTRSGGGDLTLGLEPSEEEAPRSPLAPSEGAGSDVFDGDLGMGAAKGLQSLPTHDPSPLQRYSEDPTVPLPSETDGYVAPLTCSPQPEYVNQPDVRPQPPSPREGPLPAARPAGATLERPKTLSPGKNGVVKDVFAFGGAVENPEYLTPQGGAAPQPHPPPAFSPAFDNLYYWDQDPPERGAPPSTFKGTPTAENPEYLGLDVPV
Experimental: The kinase analysis in vitro was performed using the HTRF kinEASE TK kit of Invitrogen Co., the procedure steps were carried out according to instructions of kit, the method then was used to detect the inhibitory effects of test compounds on substrate peptide phosphorylation of the EGFR receptor tyrosine kinase and Her-2 activity enzyme in vitro. Specific steps are as follows:
b) 2 microliters of the previously prepared TK-biotin substrate solution of EGFR and Her-2 enzyme corresponding to the substrate concentration were added to all the reaction holes.
The holes were sealed with sealing film for microplate, mixed and incubated at room temperature for 10 min to allow the compounds and enzymes fully combine.
d) 2 microliters of ATP solutions with concentration corresponding to EGFR and Her-2 enzyme were added to all the reaction holes to start the kinase reaction, the enzyme reaction time of EGFR and HER2 are 30 min.
e) The EGFR and Her-25 detection solution were prepared 5 min before the end of the kinase reaction. Streptavidin-XL665 and TK europium cryptate (1:100) detection solution corresponding to the two enzymes were prepared respectively by using detection buffer in the kit.
f) 5 microliters of diluted Streptavidin-XL665 were added to all the reaction holes after the kinase reaction was over, diluted TK antibody europium cryptate detection solutions were then added immediately after fully mixed.

[7] = tested on: NCI-H1975 nude mice transplanted tumor; assay: In vivo pharmacodynamics evaluation, NCI-H1975 nude mice transplanted tumor; set-up: species or system BALB/c nude mice; details: 20 mg/kg, qd, gavage, 14 days
Experimental: BALB/c nude mice, female, 6 to 7 weeks of age, weight 20 g±2 g, purchased from Shanghai silaike experimental animal Co. Ltd., SPF environment.
The logarithmic growth phase NCI-H1975 cells cultured in vitro were digested with trypsin, washed with PBS for three times, the cell survival rate was detected by trypan blue exclusion to be >90%, the cell concentration was adjusted to 1×10^7/mL with PBS, which was implanted subcutaneously in back forelimb of the nude mice with 0.2 mL/pcs under aseptic condition. After tumor formation, the tumor were cultured for two passages in vivo, the tumor were stripped out to sterile culture plate when growing to the volume of 300 to 500 mm^3, a small amount of PBS was added, the tumor tissue with vigorous growth were cut into about 1.5 mm^3 tumor blocks, inoculated in right armpit of the nude mice. The diameter of tumor was measured with vernier caliper, when the tumor grew to 100 to 200 mm^3, then the animal were randomly grouping, […], gavage administration, once a day or every other day, continuously administrated for 14 days (d14) and observed for 7 days (d22), the negative control group was administrated with the same amount of solvent (saline solution of 1% DMSO), during the period of administration and recovery, the body weight and tumor size of the nude mice were measured weekly 2 to 3 times. The tumor volume and relative tumor volume were calculated according to the measured data, and the calculation formula of the tumor volume (TV) was TV=1/2×a×b^2, of which a and b represent the tumor length and diameter respectively. The relative tumor volume (RTV) was calculated according to the measured results, and the calculation formula was: RTV=Vt/V0, wherein V0 represents the tumor volume at the beginning of the experiment, Vt represents the volume of the tumor each measured.

SMILES	pIC50 [1]	pIC50 [2]	pIC50 [3]	pIC50 [4]	pIC50 [5]	pIC50 [6]	RTV d22 [7]	T/C (%) d22 [7]	Inhibition rate (%) d22 ([7]; listed as Positive control)
CCOCCOc1cc2ncnc(Nc3ccc(OCCOC)c(Cl)c3)c2cc1NC(=O)/C=C/CN(C)C [Embodiment 15, (E)-N-(4-(3-chloro-4-(2-methoxyethoxy)phenylamino)-7-(2-ethoxyethoxy)quinazolin-6-yl)-4-(dimethylamino)but-2-enamide]	8.46	8.78	7.70	8.14	–	–	–	–	–
CCOCCOc1ccc(Nc2ncnc3cc(OCCOCC)c(NC(=O)/C=C/CN(C)C)cc23)cc1Cl [Embodiment 17, (E)-N-(4-(3-chloro-4-(2-ethoxyethoxy)phenylamino)-7-(2-ethoxyethoxy)quinazolin-6-yl)-4-(dimethylamino)but-2-enamide]	9.47	8.60	7.86	8.21	–	–	–	–	–
C=C(Br)C(=O)Nc1cc2c(Nc3ccc(F)c(Cl)c3)ncnc2cc1OCCOCC [Embodiment 28, N-(4-(3-chloro-4-fluorophenylamino)-7-(2-ethoxyethoxy)quinazolin-6-yl)2-bromoacrylamide]	8.19	7.82	6.24	7.40	–	–	–	–	–
C=CC(=O)Nc1cc2c(Nc3ccc(F)c(Cl)c3)ncnc2cc1OCCOCC [Embodiment 22, N-(4-(3-chloro-4-fluorophenylamino)-7-(2-ethoxyethoxy)quinazolin-6-yl)acrylamide]	9.82	8.25	8.22	7.29	–	–	–	–	–
C#CC(=O)Nc1cc2c(Nc3ccc(F)c(Cl)c3)ncnc2cc1OCCOCC [Embodiment 25, N-(4-(3-chloro-4-fluorophenylamino)-7-(2-ethoxyethoxy)quinazolin-6-yl)propiolamide]	8.83	8.47	7.94	7.31	–	–	–	–	–
CCOCCOc1cc2ncnc(Nc3ccc(F)c(Cl)c3)c2cc1NC(=O)/C=C/CN(CC)CC [Embodiment 33, (E)-N-(4-(3-chloro-4-fluorophenylamino)-7-(2-ethoxyethoxy)quinazolin-6-yl)-4-(diethylamino)but-2-enamide]	–	–	–	–	5.45	7.96	–	–	–
CCOCCOc1cc2ncnc(Nc3ccc(F)c(Cl)c3)c2cc1NC(=O)/C=C/Br [Embodiment 30, (E)-N-(4-(3-chloro-4-fluorophenylamino)-7-(2-ethoxyethoxy)quinazolin-6-yl)-3-bromoacrylamide]	8.31	8.40	6.53	8.09	–	–	–	–	–
C=CS(=O)(=O)Nc1cc2c(Nc3ccc(F)c(Cl)c3)ncnc2cc1OCCOCC [Embodiment 24, N-(4-(3-chloro-4-fluorophenylamino)-7-(2-ethoxyethoxy)quinazolin-6-yl)ethenesulfonamide]	8.40	6.88	8.47	7.86	–	–	–	–	–
C=C(F)C(=O)Nc1cc2c(Nc3ccc(F)c(Cl)c3)ncnc2cc1OCCOCC [Embodiment 26, N-(4-(3-chloro-4-fluorophenylamino)-7-(2-ethoxyethoxy)quinazolin-6-yl)-2-fluoroacrylamide]	9.27	7.24	7.26	7.14	–	–	–	–	–
CCOCCOc1cc2ncnc(Nc3ccc(F)c(Cl)c3)c2cc1NC(=O)/C=C\C#N [Embodiment 38, (Z)—N-(4-(3-chloro-4-fluorophenylamino)-7-(2-ethoxyethoxy)quinazolin-6-yl)-3-cyanoacrylamide]	8.25	9.17	7.02	7.74	–	–	–	–	–
CCOCCOc1cc2ncnc(Nc3ccc(F)c(Cl)c3)c2cc1NC(=O)/C=C/C(F)(F)F [Embodiment 36, (E)-N-(4-(3-chloro-4-fluorophenylamino)-7-(2-ethoxyethoxy)quinazolin-6-yl)-4,4,4-trifluorobut-2-enamide]	9.82	7.74	6.83	7.56	–	–	–	–	–
COC[C@@H](C)Oc1cc2ncnc(Nc3ccc(F)c(Cl)c3)c2cc1NC(=O)/C=C/CN(C)C [Embodiment 2, (R,E)-N-(4-(3-chloro-4-fluorophenylamino)-7-(2-methoxy-1-methylethoxy)quinazolin-6-yl)-4-(dimethylamino)but-2-enamide]	–	–	7.37	7.30	5.12	6.83	–	–	–
CCOCCOc1cc2ncnc(Nc3ccc(F)c(Cl)c3)c2cc1NC(=O)/C=C\Cl [Embodiment 32, (Z)—N-(4-(3-chloro-4-fluorophenylamino)-7-(2-ethoxyethoxy)quinazolin-6-yl)-3-chloroacrylamide]	–	–	–	8.80	5.40	–	–	–	–
COC[C@H](C)Oc1cc2ncnc(Nc3ccc(F)c(Cl)c3)c2cc1NC(=O)/C=C/CN(C)C [Embodiment 3, (S,E)-N-(4-(3-chloro-4-fluorophenylamino)-7-(2-methoxy-1-methylethoxy)quinazolin-6-yl)-4-(dimethylamino)but-2-enamide]	–	–	7.78	7.18	5.71	6.32	–	–	–
CN(C)CC=CC(=O)Nc1cc2c(Nc3ccc(F)c(Cl)c3)ncnc2cc1O[C@H]1CCOC1 [Afatinib, N-[4-[(3-chloro-4-fluorophenyl)amino]-7-[[(3S)-tetrahydro-3-furyl]oxy]-6-quinazolinyl)-4-(dimethylamino)-but-2-enamide, reference compound]	–	–	–	–	5.17	–	1.67 ± 0.20	22.44%	67.6** %
CCOCCOc1cc2ncnc(Nc3ccc(F)c(Cl)c3)c2cc1NC(=O)/C=C/Cl [Embodiment 31, (E)-N-(4-(3-chloro-4-fluorophenylamino)-7-(2-ethoxyethoxy)quinazolin-6-yl)-3-chloroacrylamide]	–	–	–	8.13	–	–	–	–	–
CCOCCOc1cc2ncnc(Nc3ccc(NCCS(C)(=O)=O)c(Cl)c3)c2cc1NC(=O)/C=C/CN(C)C [Embodiment 20, (E)-N-(4-(3-chloro-4-((2-(methylsulfonyl)ethyl)amino)phenylamino)-7-(2-ethoxyethoxy)quinazolin-6-yl)-4-(dimethylamino)but-2-enamide]	9.27	7.90	8.19	7.18	–	–	–	–	–
CCOCCOc1cc2ncnc(Nc3ccc(F)c(Cl)c3)c2cc1NC(=O)/C=C/C(=O)OC [Embodiment 37, methyl (E)-4-(4-((3-chloro-4-fluorophenylamino)-7-(2-ethoxyethoxy)quinazolin-6-yl)amino)-4-oxobut-2-enoate]	9.01	7.67	6.68	7.45	–	–	–	–	–
C=C(Cl)C(=O)Nc1cc2c(Nc3ccc(F)c(Cl)c3)ncnc2cc1OCCOCC [Embodiment 27, N-(4-(3-chloro-4-fluorophenylamino)-7-(2-ethoxyethoxy)quinazolin-6-yl)2-chloroacrylamide]	7.48	8.43	6.43	7.43	–	–	–	–	–
CCOCCOc1cc2ncnc(Nc3ccc(OCC(F)(F)F)c(Cl)c3)c2cc1NC(=O)/C=C/CN(C)C [Embodiment 13, (E)-N-(4-(3-chloro-4-(2,2,2-trifluoroethoxy)phenylamino)-7-(2-ethoxyethoxy)quinazolin-6-yl)-4-(dimethylamino)but-2-enamide]	8.54	8.59	7.19	6.97	–	–	–	–	–

Reference: US10196365B2, “Quinazoline derivative, preparation method therefor, and pharmaceutical composition and application thereof” (ARROMAX PHARMATECH CO., LTD., priority 2014, dated 2019)
